# Measurements reported in patent US20220380368A1, “SPIROCYCLIC ANDROGEN RECEPTOR PROTEIN DEGRADERS” (THE REGENTS OF THE UNIVERSITY OF MICHIGAN, priority 2019, published 2022).
# Where two headings read alike, the source gives them in different places.
# Experiments:
# AR protein = target: T1, AR protein (Homo sapiens, UniProt P10275); test: Western blotting analysis of AR protein levels in VCaP cells, band quantification, DC50/DC90; format: cell-based
# T1 construct: endogenous in cells; host or cells: VCaP
# T1 sequence (P10275 1-920): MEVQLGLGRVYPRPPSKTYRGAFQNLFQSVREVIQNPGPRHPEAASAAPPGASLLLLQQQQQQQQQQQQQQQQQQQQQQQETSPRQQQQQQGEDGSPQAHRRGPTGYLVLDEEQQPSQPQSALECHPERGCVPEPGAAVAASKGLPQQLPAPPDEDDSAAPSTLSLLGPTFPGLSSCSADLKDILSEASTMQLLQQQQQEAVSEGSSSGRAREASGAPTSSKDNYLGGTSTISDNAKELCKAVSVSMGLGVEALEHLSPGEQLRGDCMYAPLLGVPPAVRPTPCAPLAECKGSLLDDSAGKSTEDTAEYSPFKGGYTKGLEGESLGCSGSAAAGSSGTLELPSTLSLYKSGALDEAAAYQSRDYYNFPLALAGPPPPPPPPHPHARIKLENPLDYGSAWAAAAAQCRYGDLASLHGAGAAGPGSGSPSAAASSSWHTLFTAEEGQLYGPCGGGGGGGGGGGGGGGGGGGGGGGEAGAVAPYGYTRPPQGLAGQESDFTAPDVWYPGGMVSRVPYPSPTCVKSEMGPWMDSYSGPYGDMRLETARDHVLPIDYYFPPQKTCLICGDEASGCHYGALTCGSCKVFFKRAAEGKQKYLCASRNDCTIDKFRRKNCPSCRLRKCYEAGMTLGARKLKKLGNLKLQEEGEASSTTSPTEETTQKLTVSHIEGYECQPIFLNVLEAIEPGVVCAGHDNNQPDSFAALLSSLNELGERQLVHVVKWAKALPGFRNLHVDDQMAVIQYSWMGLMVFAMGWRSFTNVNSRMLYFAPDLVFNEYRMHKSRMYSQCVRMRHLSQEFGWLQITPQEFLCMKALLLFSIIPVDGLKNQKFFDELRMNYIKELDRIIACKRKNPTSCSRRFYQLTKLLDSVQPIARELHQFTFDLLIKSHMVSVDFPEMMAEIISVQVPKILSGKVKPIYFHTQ
# Outline: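 VCaP cells treated with compounds, lysed in RIPA and probed for AR by Western blot with GAPDH loading control. Band intensities normalised to GAPDH; DC50 from curve fit, DC90 calculated from DC50 and Hill slope via four-parameter equation.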
# [1] = Mouse PK studies after oral and IV dosing; format: in vivo; conditions: for F: PO 3 mg/kg vs IV 1 mg/kg; for AUC(0-t) / clearance / half-life / Vd / Cmax / Tmax: in vivo; for clearance: read-out: IV Cl (converted); for Vd: read-out: IV VSS
# Description: The pharmacokinetics of representative Compounds of the Disclosure were determined after oral and IV dosing at the concentrations indicated in mouse (Table 7). […] The vehicles used in these studies are either (i) 10% PEG400+90% PBS (adjusted to pH to 8.0 by 0.5 N NaOH); or (ii) 100% PEG200.
# [2] = VCaP cells, Table 6; read-out: VCaP DC50
# [3] = iv, 1 mg/kg, IV, dose 1 mg/kg, read-out: IV AUC(0 − t)
# [4] = iv, 1 mg/kg, IV, dose 1 mg/kg, read-out: IV T1/2 (converted)
# [5] = po, 3 mg/kg, PO, dose 3 mg/kg, read-out: PO AUC(0 − t)
# [6] = po, 3 mg/kg, PO, dose 3 mg/kg, read-out: PO T1/2 (converted)
Compound,DC50 (AR protein; [2]) [nM],F [1] [%],"AUC(0-t) [1, 3] [µg·h/mL]","clearance ([1]; iv, 1 mg/kg, IV, dose 1 mg/kg) [L/h/kg]","half-life [1, 4] [h]","Vd ([1]; iv, 1 mg/kg, IV, dose 1 mg/kg) [L/kg]","Cmax ([1]; po, 3 mg/kg) [µg/mL]","Tmax ([1]; po, 3 mg/kg) [h]","AUC(0-t) [1, 5] [µg·h/mL]","half-life [1, 6] [h]","DC50 (AR protein; read-out: VCaP DC50; VCaP cells, Table 6) [nM]"
"C[C@H]1CC2(CCN(c3cnc(C(=O)N4CCN(CC5CCN(c6ccc7c(c6)C(=O)N(C6CCC(=O)NC6=O)C7=O)CC5)CC4)cn3)CC2)CN1c1ccc(C#N)c(Cl)c1 (stereo partly drawn) [Cpd. No. 494, 2-chloro-4-((3S)-8-(5-(4-((1-(2-(2,6-dioxopiperidin-3-yl)-1,3-dioxoisoindolin-5-yl)piperidin-4-yl)methyl)piperazine-1-carbonyl)pyrazin-2-yl)-3-methyl-2,8-diazaspiro[4.5]decan-2-yl)benzonitrile]",1 to 10,9,0.18,5.24,5.4,16.9,0.036,0.5,0.049,2.4,–
"C[C@H]1CC2(CCN(c3ccc(C(=O)N4CCC(CN5Cc6cc7c(cc6C5)C(=O)N(C5CCC(=O)NC5=O)C7=O)CC4)nn3)CC2)CN1c1ccc(C#N)c(Cl)c1 (stereo partly drawn) [Cpd. No. 496, 2-chloro-4-((3S)-8-(6-(4-((6-(2,6-dioxopiperidin-3-yl)-5,7-dioxo-3,5,6,7-tetrahydropyrrolo[3,4-f]isoindol-2(1H)-yl)methyl)piperidine-1-carbonyl)pyridazin-3-yl)-3-methyl-2,8-diazaspiro[4.5]decan-2-yl)benzonitrile]",< 1,72,3.03,0.32,5.8,1.46,1.42,1,6.55,4.1,–
"C[C@H]1CC2(CCN(c3cnc(C(=O)N4CCC(N5CCN(c6ccc7c(c6)C(=O)N(C6CCC(=O)NC6=O)C7=O)CC5)CC4)cn3)CC2)CN1c1ccc(C#N)c(Cl)c1 (stereo partly drawn) [Cpd. No. 497, 2-chloro-4-((3S)-8-(5-(4-(4-(2-(2,6-dioxopiperidin-3-yl)-1,3-dioxoisoindolin-5-yl)piperazin-1-yl)piperidine-1-carbonyl)pyrazin-2-yl)-3-methyl-2,8-diazaspiro[4.5]decan-2-yl)benzonitrile]",< 1,30,0.849,1.13,2.7,2,0.336,0.5,0.76,2,–
"C[C@H]1CC2(CCN(c3cnc(C(=O)N4CCC(N5CCN(c6cc7c(cc6F)C(=O)N(C6CCC(=O)NC6=O)C7=O)CC5)CC4)cn3)CC2)CN1c1ccc(C#N)c(Cl)c1 (stereo partly drawn) [Cpd. No. 498, 2-chloro-4-((3S)-8-(5-(4-(4-(2-(2,6-dioxopiperidin-3-yl)-6-fluoro-1,3-dioxoisoindolin-5-yl)piperazin-1-yl)piperidine-1-carbonyl)pyrazin-2-yl)-3-methyl-2,8-diazaspiro[4.5]decan-2-yl)benzonitrile]",1 to 10,45,0.419,2.21,1.9,3.22,0.191,0.8,0.572,2.3,–
"C[C@H]1CC2(CCN(c3ccc(C(=O)N4CCC(N5CCN(c6ccc7c(c6)C(=O)N(C6CCC(=O)NC6=O)C7=O)CC5)CC4)nn3)CC2)CN1c1ccc(C#N)c(Cl)c1 (stereo partly drawn) [Cpd. No. 499, 2-chloro-4-((3S)-8-(6-(4-(4-(2-(2,6-dioxopiperidin-3-yl)-1,3-dioxoisoindolin-5-yl)piperazin-1-yl)piperidine-1-carbonyl)pyridazin-3-yl)-3-methyl-2,8-diazaspiro[4.5]decan-2-yl)benzonitrile]",< 1,29,1.92,0.49,3.6,1.73,0.404,1.3,1.67,2,–
"C[C@H]1CC2(CCN(c3ccc(C(=O)N4CCC(N5CCN(c6cc7c(cc6F)C(=O)N(C6CCC(=O)NC6=O)C7=O)CC5)CC4)nn3)CC2)CN1c1ccc(C#N)c(Cl)c1 (stereo partly drawn) [Cpd. No. 500, 2-chloro-4-((3S)-8-(6-(4-(4-(2-(2,6-dioxopiperidin-3-yl)-6-fluoro-1,3-dioxoisoindolin-5-yl)piperazin-1-yl)piperidine-1-carbonyl)pyridazin-3-yl)-3-methyl-2,8-diazaspiro[4.5]decan-2-yl)benzonitrile]",1 to 10,60,1.88,0.47,2.6,1.53,0.711,1.7,3.75,2,–
"C[C@H]1CC2(CCN(c3ccc(C(=O)N4CCN(CC5CN(c6cc7c(cc6F)C(=O)N(C6CCC(=O)NC6=O)C7=O)C5)CC4)cc3)CC2)CN1c1ccc(C#N)c(Cl)c1 (stereo partly drawn) [Cpd. No. 502, 2-chloro-4-((3S)-8-(4-(4-((1-(2-(2,6-dioxopiperidin-3-yl)-6-fluoro-1,3-dioxoisoindolin-5-yl)azetidin-3-yl)methyl)piperazine-1-carbonyl)phenyl)-3-methyl-2,8-diazaspiro[4.5]decan-2-yl)benzonitrile]",< 1,32,3.49,0.2,10,3,0.289,3.3,3.39,9.5,–
"C[C@H]1CC2(CCN(c3ccc(C(=O)N4CCN(C5CN(c6ccc7c(c6)C(=O)N(C6CCC(=O)NC6=O)C7=O)C5)CC4)cc3F)CC2)CN1c1ccc(C#N)c(Cl)c1 (stereo partly drawn) [Cpd. No. 510, 2-chloro-4-((3S)-8-(4-(4-(1-(2-(2,6-dioxopiperidin-3-yl)-1,3-dioxoisoindolin-5-yl)azetidin-3-yl)piperazine-1-carbonyl)-2-fluorophenyl)-3-methyl-2,8-diazaspiro[4.5]decan-2-yl)benzonitrile]",–,51,4.08,0.2,8.3,2.1,0.518,2.7,6.27,7.2,< 1
"C[C@H]1CC2(CCN(c3ccc(C(=O)N4CCC(N5CCN(c6ccc7c(c6)C(=O)N(C6CCC(=O)NC6=O)C7=O)CC5)CC4)cc3F)CC2)CN1c1ccc(C#N)c(Cl)c1 (stereo partly drawn) [Cpd. No. 511, 2-chloro-4-((3S)-8-(4-(4-(4-(2-(2,6-dioxopiperidin-3-yl)-1,3-dioxoisoindolin-5-yl)piperazin-1-yl)piperidine-1-carbonyl)-2-fluorophenyl)-3-methyl-2,8-diazaspiro[4.5]decan-2-yl)benzonitrile]",< 1,28,9.04,0.1,8,0.9,0.668,2.7,7.52,6.4,–
